Assay [1] deals with T1, MRGPRX2 (Homo sapiens, UniProt Q96LB1).
T1 sequence (Q96LB1 1-330): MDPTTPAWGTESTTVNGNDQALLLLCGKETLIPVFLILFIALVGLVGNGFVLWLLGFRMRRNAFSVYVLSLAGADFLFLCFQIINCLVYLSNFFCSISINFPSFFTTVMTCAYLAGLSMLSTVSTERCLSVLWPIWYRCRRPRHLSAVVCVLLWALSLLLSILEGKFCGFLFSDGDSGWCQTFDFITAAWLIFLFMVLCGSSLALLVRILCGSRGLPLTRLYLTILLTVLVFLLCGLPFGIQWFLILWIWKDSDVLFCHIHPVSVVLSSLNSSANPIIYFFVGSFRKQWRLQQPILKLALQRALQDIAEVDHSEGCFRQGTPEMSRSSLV
Put plainly: potency comparison of separated isomers (assay not stated). The note with it: compared with the other separated diastereomer/enantiomer.

The target of assay [2] is T1, MRGPRX2. Put plainly: MRGPRX2 β-Arrestin recruitment assay (PathHunter CHO-K1). The format is cell-based. As to conditions: PathHunter CHO-K1 cells, agonist Cortistatin 14 0.25 μM. Further details: host or cells: PathHunter CHO-K1. An excerpt:
Example C: MRGPRX2 β-Arrestin Assay
This assay measures compound inhibition of β-Arrestin recruitment, which is part of the G protein-independent pathway that results from the ligand-activated GPCR phosphorylation by specific GPCR kinases. The PathHunter CHO-K1 MRPGRX2 B-Arrestin Cell line stably expressing ProLink tagged MRGPRX2 and Enzyme Acceptor Tagged B-Arrestin was purchased from Eurofins DiscoverX, (Fremont, CA).
The cells were maintained in culture medium from the Europhins DiscoverX Cell Culture Kit-107 which includes FBS, hygromycin B and G418. For the assay, the cells were harvested and were resuspended with Cell Plating Reagent 2 (Eurofins DiscoverX). Cells were added 10000 cells in 25 μL/well to a 384-well black cell culture plate (Greiner VWR, Radnor, PA) which contained 125 nL/well of compound at a selected serially diluted concentration range or DMSO. The plate was incubated at 37° C. with 5% CO2 for 1 h. 2 μL/well of agonist Cortistatin 14 was diluted in Protein Dilution Buffer, (Eurofins DiscoverX) for a final concentration of 0.25 μM, was added and the plate was incubated at 37° C. with 5% CO2 for 90 min. 14 μL/well of Detection Reagent Mix (PathHunter Detection Kit, Eurofins DiscoverX) was added to the plates and further incubated for 1 h in the dark. Plates were read on the PHERAstar microplate reader (BMG Labtech Cary, NC) measuring luminescence 0.1 to 1 s per well. Data was normalized using DMSO only wells and wells with high concentration of reference antagonist as controls. Compound IC50 curves were globally fitted with 3- or 4-parameter Hill equation in a Genedata Screener (Genedata Basel, Switzerland).

In assay [3] the target is T1, MRGPRX2. Put plainly: MRGPRX2 IP1 HTRF assay. In kind it is cell-based. As to conditions: CHO-K1 cells, agonist Cortistatin 14 1 μM, IP1 accumulation. Details: host or cells: CHO-K1. An excerpt: Example B: MRGPRX2 IP1 HTRF Assay
This assay measures compound inhibition of myo-Inositol 1 phosphate (IP1) accumulation in CHO-K1 cells. Chinese hamster ovary (CHO-K1) cells stably expressing human MRGPRX2 were purchased from GenScript (Piscataway, NJ).
For the HTRF IP1 determination, an IP-One GqKit (Perkin Elmer Cisbio, Waltham, MA), which includes all reagents and buffers in this protocol, was used. The cells were maintained in culture medium (Ham's F-12K) containing 10% (v/v) FBS, and 200 μg/mL Zeocin. For the assay, the cells were harvested and resuspended in culture medium with 2% FBS and without Zeocin, then were passed through a 40 μm filter. Cells were added at 20000 cells in a 5 μL/well to a 384-well white small volume cell culture plate (Greiner VWR, Radnor, PA) which contained 50 nL/well of test compound serially diluted at a selected concentration range in DMSO. 5 μL/well of prepared 2× Stimulation Buffer2 was then added to plates and was incubated at 37° C. with 5% CO2 for 1 h. 5 μL/well of agonist Cortistatin 14 (Bio-TechneR&D Systems, Minneapolis, MN) in 1× Stimulation Buffer 2, for a 1 μM final concentration, was then added to plates and incubated at 37° C. with 5% CO2 for 1 h. 6 μL/well of 1:20 diluted Detection Reagent Mix (d2 and Cryptate) was added to the plates and incubated for 1 h in the dark. Plates were read on the PHERAstar microplate reader (BMG Labtech Cary, NC) to determine the HTRF ratio of the acceptor and donor emission signals. The IP1 concentrations were calculated from a standard curve following the IP-One GQ kit instructions. Wells with DMSO only and wells with high concentration of reference antagonist were used as controls for normalization. Compound IC50 curves were globally fitted with 3- or 4-parameter Hill equation in a Genedata Screener (Genedata Basel, Switzerland).
Background: Time-resolved FRET reads energy transfer from a long-lived donor to a nearby acceptor.

Usually IC50 stands for the concentration that inhibits the measured activity by half. A low value points to higher potency.

Molecules are shown by their SMILES.

As for `O=C1CC2(CN1)CN(C(CNc1cc(C(F)(F)F)nc3cc(C(F)(F)F)nn13)c1ccc(F)cc1)C2` (single isomer, unassigned) [Example 36, 2-(2-((2,5-Bis(trifluoromethyl)pyrazolo[1,5-a]pyrimidin-7-yl)amino)-1-(4-fluorophenyl)ethyl)-2,6-diazaspiro[3.4]octan-7-one], the “relative potency of the separated isomer” value in assay [1] is on record as “active”. Also, the IC50 in assay [2] is 0.1 to 100 nM.

Take `NC(=O)N1CCC(C(CNc2cc(C(F)(F)F)nc3cc(C(F)(F)F)nn23)c2ccc(F)cc2)C1` (single isomer, unassigned) [Example 20, 3-(2-((2,5-Bis(trifluoromethyl)pyrazolo[1,5-a]pyrimidin-7-yl)amino)-1-(4-fluorophenyl)ethyl)pyrrolidine-1-carboxamide]: the “relative potency of the separated isomer” value in assay [1] is on record as “more potent”. The compound also displayed a 50% inhibitory concentration (IC50) in assay [2] of 0.1 to 100 nM.

On to `C[C@](CNc1cc(C(F)(F)F)nc2cc(C(F)(F)F)nn12)(c1ccc(F)cc1)C1CN(C(N)=O)C1` (single isomer, unassigned) [Example 5, 3-(1-((2,5-Bis(trifluoromethyl)pyrazolo[1,5-a]pyrimidin-7-yl)amino)-2-(4-fluorophenyl)propan-2-yl)azetidine-1-carboxamide], for which the IC50 in assay [3] lay within 0.1 to 100 nM.

For the compound `C[C@](CNc1cc(C(F)(F)F)nc2cc(C(F)(F)F)nn12)(c1ccc(F)cc1)C1CN(C(N)=O)C1` (single isomer, unassigned) [Example 6, 3-(1-((2,5-Bis(trifluoromethyl)pyrazolo[1,5-a]pyrimidin-7-yl)amino)-2-(4-fluorophenyl)propan-2-yl)azetidine-1-carboxamide], the IC50 in assay [3] and in assay [2] was 0.1 to 100 nM each time.

With `CC(CNc1cc(C(F)(F)F)nc2cc(C(F)(F)F)nn12)(c1ccccc1)C1CNC1` (racemic) [Example 11, N-(2-(Azetidin-3-yl)-2-phenylpropyl)-2,5-bis(trifluoromethyl)pyrazolo[1,5-a]pyrimidin-7-amine], the IC50 in assay [3] and in assay [2] was 0.1 to 100 nM throughout.

As for `NC(=O)N1CCC(C(CO)(CNc2cc(C(F)(F)F)nc3cc(C(F)(F)F)nn23)c2ccc(F)cc2)C1` (single isomer, unassigned) [Example 18, 3-(1-((2,5-Bis(trifluoromethyl)pyrazolo[1,5-a]pyrimidin-7-yl)amino)-2-(4-fluorophenyl)-3-hydroxypropan-2-yl)pyrrolidine-1-carboxamide], the IC50 in assay [3] and in assay [2] was 0.1 to 100 nM in each case.

`CC1(O)CN(C(CNc2cc(C(F)(F)F)nc3cc(C(F)(F)F)nn23)c2ccc(F)cc2)C1` (single isomer, unassigned) [Example 35, 1-(2-((2,5-Bis(trifluoromethyl)pyrazolo[1,5-a]pyrimidin-7-yl)amino)-1-(4-fluorophenyl)ethyl)-3-methylazetidin-3-ol]: the “relative potency of the separated isomer” value in assay [1] is recorded as “active”. The same compound had an IC50 in assay [2] of 0.1 to 100 nM.

With `O=C1NCC2(CN(C(CNc3cc(C(F)(F)F)nc4cc(C(F)(F)F)nn34)c3ccc(F)cc3)C2)N1` (single isomer, unassigned) [Example 37, 2-(2-((2,5-Bis(trifluoromethyl)pyrazolo[1,5-a]pyrimidin-7-yl)amino)-1-(4-fluorophenyl)ethyl)-2,5,7-triazaspiro[3.4]octan-6-one], the “relative potency of the separated isomer” value in assay [1] was “active”. The IC50 in assay [2] lay within 0.1 to 100 nM.

With `CC(CNc1cc(C(F)F)nc2cc(C(F)(F)F)nn12)(c1ccccc1)C1CN(C(N)=O)C1` (racemic) [Example 8, 3-(1-((5-(Difluoromethyl)-2-(trifluoromethyl)pyrazolo[1,5-a]pyrimidin-7-yl)amino)-2-phenylpropan-2-yl)azetidine-1-carboxamide], the IC50 in assay [3] and in assay [2] was 0.1 to 100 nM each time.

With `[2H]C([2H])([2H])NC(=O)C1CN(C(CNc2cc(C(F)(F)F)nc3cc(C(F)(F)F)nn23)c2ccc(F)cc2)C1` (single isomer, unassigned) [Example 26, 1-(2-((2,5-Bis(trifluoromethyl)pyrazolo[1,5-a]pyrimidin-7-yl)amino)-1-(4-fluorophenyl)ethyl)-N-(methyl-d3)azetidine-3-carboxamide], the “relative potency of the separated isomer” value in assay [1] is given as “more potent”. In assay [2], this compound returned an IC50 of 0.1 to 100 nM.

Take `CC(CNc1cc(C(F)(F)F)nc2cc(C(F)(F)F)nn12)(c1ccccc1)C1CN(C(N)=O)C1` (racemic) [Example 10, 3-(1-((2,5-Bis(trifluoromethyl)pyrazolo[1,5-a]pyrimidin-7-yl)amino)-2-phenylpropan-2-yl)azetidine-1-carboxamide]: the IC50 in assay [3] and in assay [2] was 0.1 to 100 nM in each case.

As to `O=C1NC2(CCO1)CN(C(CNc1cc(C(F)(F)F)nc3cc(C(F)(F)F)nn13)c1ccc(F)cc1)C2` (single isomer, unassigned) [Example 25, 2-(2-((2,5-Bis(trifluoromethyl)pyrazolo[1,5-a]pyrimidin-7-yl)amino)-1-(4-fluorophenyl)ethyl)-7-oxa-2,5-diazaspiro[3.5]nonan-6-one], the “relative potency of the separated isomer” value in assay [1] is listed as “more potent”. Further, in assay [2], the IC50 lay in the range of 0.1 to 100 nM.

`NC(=O)N1CCC(C(CO)(CNc2cc(C(F)(F)F)nc3cc(C(F)(F)F)nn23)c2ccc(F)cc2)C1` (single isomer, unassigned) [Example 19, 3-(1-((2,5-Bis(trifluoromethyl)pyrazolo[1,5-a]pyrimidin-7-yl)amino)-2-(4-fluorophenyl)-3-hydroxypropan-2-yl)pyrrolidine-1-carboxamide] displayed an IC50 in assay [2] of 0.1 to 100 nM.

Take `CC(CNc1cc(C(F)(F)F)nc2cc(C(F)(F)F)nn12)(c1ccccc1)C1CN(c2n[nH]c(N)n2)C1` (racemic) [Example 9, N-(2-(1-(5-Amino-1H-1,2,4-triazol-3-yl)azetidin-3-yl)-2-phenylpropyl)-2,5-bis(trifluoromethyl)pyrazolo[1,5-a]pyrimidin-7-amine]: the IC50 in assay [3] and in assay [2] was 0.1 to 100 nM each time.

Consider `NC(=O)N1CC2(C1)CN(C(CNc1cc(C(F)(F)F)nc3cc(C(F)(F)F)nn13)c1ccc(F)cc1)C2` (single isomer, unassigned) [Example 29, 6-(2-((2,5-Bis(trifluoromethyl)pyrazolo[1,5-a]pyrimidin-7-yl)amino)-1-(4-fluorophenyl)ethyl)-2,6-diazaspiro[3.3]heptane-2-carboxamide], for which the IC50 in assay [2] lay within 0.1 to 100 nM.

On to `CC(CNc1cc(C(F)F)nc2cc(C(F)(F)F)nn12)(c1ccccc1)C1CN(S(N)(=O)=O)C1` (racemic) [Example 7, 3-(1-((5-(Difluoromethyl)-2-(trifluoromethyl)pyrazolo[1,5-a]pyrimidin-7-yl)amino)-2-phenylpropan-2-yl)azetidine-1-sulfonamide], for which the IC50 in assay [3] and in assay [2] was 0.1 to 100 nM in each case.

The record behind these values is US20250243208A1, “BICYCLIC HETEROCYCLES AS MRGPRX2 ANTAGONISTS” (Incyte Corporation, priority 2024, published 2025).
